Reference: paper PMC9920254 (Molecules, 2023)
Where “and” joins values, the source holds several entries; their conditions need not be identical. Equal values may be shown once. Read-outs that look alike come from different tables or passages of the source.

Legend:
[1] = human LMs
[2] = Pharmacokinetic profile of PND in rats with or without ibrutinib (UGTs inhibitor) pretreatment; type: in vivo, rat; conditions: for Cmax / Tmax: 3.5 mg/kg; for MRT inf: n = 3, read-out: MRT0-∞
Procedure: Ibrutinib, a broad inhibitor of UGTs, was used to block the metabolism of PND via UGTs. PND and ibrutinib were formulated in PEG 300-water (70%: 30%, v/v) and DMSO-Cremophor EL-water (10%: 30%: 60%, v/v/v), respectively. Rats were pretreated through intraperitoneal (i.p.) injection of ibrutinib (100 mg/kg) or vehicle (three rats per group). After 0.5 h, PND (3.5 mg/kg) were administrated via gavage. Then blood samples were taken into heparinized tubes for separating plasma. Time points included before dosing, at 5, 20 and 45 min and 1.25, 2, 3, 4, 6, 8, 12, 24 and 48 h after dosing. Plasma was separated by centrifuging the blood samples at 3000 rpm for 10 min and then stored at −40 °C until analysis. The plasma samples were analyzed using the reported LC–MS/MS method as described in our previous study.
Figures and statistics were plotted and calculated using GraphPad Prism (version 8.4.3) and Microsoft Excel (version 2019). Metabolic pathways were illustrated with ChemBioDraw Ultra (version 13.0). Pharmacokinetic parameters were estimated using non-compartmental methods (WinNonlin version 2.0, Pharsight Co., Certara, NJ, USA). All pharmacokinetic parameters were given as the mean ± standard deviation. All statistical analyses were performed using SAS (version 9.4; SAS Institute Inc., Cary, NC, USA). A p value < 0.05 was considered statistically significant.

CYPs [3] = assay: in vitro; conditions: rat, pH 7.4
[4] = rat LMs
CYPs (human LMs) = conditions: human LMs (HLM)
UGTs (mouse LMs) = conditions: mouse LMs (MLM)
CYPs [5] = assay: in vitro; conditions: mouse, pH 7.4
[6] = rat bile, after 72 h of administration via gavage (3.5 mg/kg) and injection (0.35 mg/kg)
IAV = tested on: IAV; parameters: method as in PMID 32520560; conditions: mice, oral dosing; superior to oseltamivir; cited from earlier work
UGTs (rat LMs) = conditions: rat LMs (RLM)
UGTs (human LMs) = conditions: human LMs (HLM)
CYPs [7] = assay: in vitro; conditions: human, pH 7.4
[8] = Metabolite profiling of PND in rat bile, urine, feces and plasma by UHPLC–HRMS; type: in vivo; conditions: feces
Procedure: Rats, three animals in each group, were randomly selected and treated with PND orally (3.5 mg/kg) or intravenously (0.35 mg/kg). Blood samples were collected into heparinized tubes by retro-orbital bleeding via capillary tubes under isoflurane anesthesia at 0.33, 3 and 8 h after oral administration and at 0.25, 4 and 8 h after intravenous injection. Plasma was separated by centrifuging the blood samples at 3000 rpm for 10 min. Rats were individually housed in metabolic cages (Tecniplast, Buguggiate, Italia) for collecting urine and feces samples. Additionally, the bile duct of rats under anesthesia with chloral hydrate (10% w/v) were cannulated with a S2-RBDC cannula (Skillsmodel, Beijing) for collecting bile. Urine and feces as well as bile samples were collected pre-dosing and at the following intervals postdosing: 0–2, 2–4, 4–6, 6–8, 8–10, 10–12 (0–12 for feces sample), 12–24, 24–36, 36–48 and 48–72 h. Bile and urine volume was recorded. Feces samples were freeze-dried, weighed, powered, added with water (9 mL/g) and homogenized. All samples were stored at −40 °C until analysis.
Identification analysis of metabolites in bio-samples was performed as described previously using a Dionex Ultimate 3000 UHPLC system combined with a Q-Exactive Focus Orbitrap mass spectrometer (Thermo Fischer Scientific, MA, USA) fitted with a CORTECS T3 column (2.1 × 150 mm, 2.7 μm; Waters, MA, USA). […]

[9] = parameters: method as in PMID 32520560; conditions: cited from earlier work
[10] = mouse LMs
CYPs (rat LMs) = conditions: rat LMs (RLM)
CYPs (mouse LMs) = conditions: mouse LMs (MLM)
[11] = PND i.g 3.5 mg/kg, ibrutinib i.p. 100 mg/kg versus control
[12] = rat, plasma, oral, PND i.g 3.5 mg/kg after i.p. Ibrutinib (100 mg/kg) pretreatment, Mean ± SD, n = 3
[13] = rat, plasma, po, PND i.g 3.5 mg/kg, Control, Mean ± SD, n = 3

CC(=O)c1cc(C)c(O)c(Cc2[nH]c3ccccc3c2Cc2c(O)c(C)cc(C(C)=O)c2O)c1O [PND, Penindolone]
PND diminished in LM system in the presence of NADPH ([1]; NADPH, within 60 min, PND 2 µM): Less than 16%
Prototype drug eliminated in the presence of UDPGA ([1]; UDPGA, PND 2 µM): more than 65%
Stability in LMs without co-factors ([1]; without NADPH or UDPGA): stable
CLz ([2]; PND i.g 3.5 mg/kg, Control, Mean ± SD, n = 3): 14.7 ± 3.67 mL/min/kg
Elevation of Cmax of PND after pretreatment with ibrutinib [2, 11]: 18.78%
Increase of AUC0–∞ of PND after combination with ibrutinib [2, 11]: 30.56%
Cmax ([2]; rat, plasma, oral, PND i.g 3.5 mg/kg after i.p. Ibrutinib (100 mg/kg) pretreatment, Mean ± SD, n = 3, read-out: Cmax-1): 272 ± 36.9 ng/mL
Tmax ([2]; rat, plasma, oral, PND i.g 3.5 mg/kg after i.p. Ibrutinib (100 mg/kg) pretreatment, Mean ± SD, n = 3, read-out: Tmax-1): 0.47 ± 0.24 h
AUC(0-inf) [2, 12]: 5450 ± 2690 ng·h/mL
Vd [2, 12]: 15.6 ± 6.42 L/kg
half-life [2, 12]: 15.8 ± 9.82 h
clearance ([2]; rat, plasma, oral, PND i.g 3.5 mg/kg after i.p. Ibrutinib (100 mg/kg) pretreatment, Mean ± SD, n = 3, read-out: CLz (converted)): 13.5 mL/min/kg
MRT inf ([2]; rat, plasma, oral, PND i.g 3.5 mg/kg after i.p. Ibrutinib (100 mg/kg) pretreatment, Mean ± SD): 23.9 ± 12.7 h
Cmax ([2]; rat, plasma, po, PND i.g 3.5 mg/kg, Control, Mean ± SD, n = 3, read-out: Cmax-1): 229 ± 128 ng/mL
Cmax ([2]; rat, plasma, po, PND i.g 3.5 mg/kg, Control, Mean ± SD, n = 3, read-out: Cmax-2): 197 ± 46.8 ng/mL
Tmax ([2]; rat, plasma, po, PND i.g 3.5 mg/kg, Control, Mean ± SD, n = 3, read-out: Tmax-1): 0.61 ± 0.24 h
Tmax ([2]; rat, plasma, po, PND i.g 3.5 mg/kg, Control, Mean ± SD, n = 3, read-out: Tmax-2): 6 h
AUC(0-inf) [2, 13]: 4180 ± 1190 ng·h/mL
half-life [2, 13]: 4.87 ± 0.3 h
MRT inf ([2]; rat, plasma, po, PND i.g 3.5 mg/kg, Control, Mean ± SD): 12.8 ± 0.22 h
Km (CYPs [3]): 15.2 µM
PND metabolized in LMs in the presence of NADPH ([4]; NADPH, within 1 h, PND 2 µM): Approximately 96%
Prototype drug eliminated in the presence of UDPGA ([4]; UDPGA, PND 2 µM): more than 65%
Stability in LMs without co-factors ([4]; without NADPH or UDPGA): stable
Clint (CYPs (human LMs)): 0.013 µL/min
Vmax (CYPs (human LMs)): 1.28 nmol/(min×mg Protein)
Clint (UGTs (mouse LMs)): 0.198 µL/min
Km (UGTs (mouse LMs)): 31.6 µM
Vmax (UGTs (mouse LMs)): 6 nmol/(min×mg Protein) and 6.25 nmol/(min×mg Protein)
Km (CYPs [5]): 16.1 µM
Accumulation of PND in bile [6]: 2.68–3.35 % of dosing
Protection against IAV-induced death and weight loss (IAV): protect mice against IAV-induced death and weight loss
Clint (UGTs (rat LMs)): 0.030 µL/min
Km (UGTs (rat LMs)): 46.7 µM
Vmax (UGTs (rat LMs)): 1.38 nmol/(min×mg Protein)
Clint (UGTs (human LMs)): 0.089 µL/min
Km (UGTs (human LMs)): 23.4 µM
Vmax (UGTs (human LMs)): 2.08 nmol/(min×mg Protein)
Km (CYPs [7]): 97.7 µM
Detection of PND (M0) in bio-samples [8]: detected in all bio-samples
Bioavailability [9]: low
PND metabolized in LMs in the presence of NADPH ([10]; NADPH, within 1 h, PND 2 µM): ~89%
Prototype drug eliminated in the presence of UDPGA ([10]; UDPGA, PND 2 µM): more than 65%
Stability in LMs without co-factors ([10]; without NADPH or UDPGA): stable
Clint (CYPs (rat LMs)): 0.073 µL/min
Vmax (CYPs (rat LMs)): 1.11 nmol/(min×mg Protein)
Clint (CYPs (mouse LMs)): 0.069 µL/min
Vmax (CYPs (mouse LMs)): 1.11 nmol/(min×mg Protein)
